According to US10787651B2, “Bradyrhizobium monooxygenase and use thereof for preparation of chiral sulfoxide” (JIANGSU AOSAIKANG PHARMACEUTICAL CO., LTD., priority 2018, dated 2020):
Residue numbers refer to the chain shown, from its start.

Legend:
purified BoTEMO enzyme = test: Specific activity and ee of purified BoTEMO enzyme against a series of thioethers; assay type: biochemical, Bradyrhizobium oligotrophicum ECU1212; settings: pH 9.0, 25° C.
Protocol: To 0.5 ml of potassium phosphate buffer (100 mmol/L, pH 9.0) was added purified BoTEMO enzyme (purified BoTEMO enzyme prepared in accordance with the method of Example 5). A thioether substrate dissolved in DMSO was added so that the final concentration of the thioether was 0.2-2 mmol/L and the final concentration of DMSO was 2% (v/v), and NADPH was added to a final concentration 0.2-2 mmol/L. At 25° C., the reaction was stirred at 1000 rpm under shaking. After completion of reaction, 0.6 ml of ethyl acetate was added for extraction. The extract was dried over anhydrous sodium sulfate. The organic clear liquid was taken up, and evaporated overnight to remove the solvent. Then, the residue was dissolved with 0.5 ml of isopropanol and analyzed for measuring the ee value of product.
The particular analysis conditions of conversion rate and ee value of product are as follows:
(§1) The analysis is carried out with a high performance liquid chromatograph (HPLC) under the conditions of: a chiral OD-H column ([…], 5 μm particle size, Daicel), a mobile phase of n-hexane:isopropanol=93:7, a flow rate of 1 ml/min, and UV detection at 254 nm; or an AS-H column (250 mm×4.6 mm, 5 μm particle size, Daicel), a mobile phase of n-hexane:isopropanol=55:45, a flow rate of 0.5 mL/min, and UV detection at 254 nm.
The activity of BoTEMO for catalyzing the asymmetrical oxidation of a series of thioether substrates to produce optically active sulfoxides was further determined by the method in accordance with Example.

Recombinant BoTEMO = test: Asymmetric oxidation of thioethers by recombinant BoTEMO crude enzyme with glucose dehydrogenase recycling; assay type: biochemical, Bradyrhizobium oligotrophicum ECU1212; settings: 25° C.
Protocol: as §1
To 0.5 ml potassium phosphate buffer (100 mmol/L, pH 9.0) was added 100 μL of crude enzyme solution of BoTEMO (the crude enzyme solution in accordance with the method of Example 5) and a crude enzyme solution of glucose dehydrogenase, and thioanisole, methanol, NADP^+ and glucose were added to the final concentration of 2 mmol/L, 10% (v/v), 0.2 mmol/L and 3.6 g/L, respectively. At 25° C. and 1000 rpm, the mixture was shaken for 1 h. After completion of reaction, 0.6 ml of ethyl acetate was added for extraction. The extract was dried over anhydrous sodium sulfate, and evaporated to remove the solvent. Then, the residue was dissolved in 0.5 ml of isopropanol. The mixture was analyzed in accordance with the method of Example 7 for measure the conversion of reaction and the ee value of product. The conversion of reaction was above 99%, and the ee value of product was above 99% (S).
To 0.5 ml of potassium phosphate buffer (100 mmol/L, pH 9.0) was added 100 μL crude enzyme solution of BoTEMO (the crude enzyme solution prepared in accordance with the method of Example 5) and a crude enzyme solution of glucose dehydrogenase, and omeprazole thioether, methanol, NADP^+ and glucose were added to the final concentrations of 0.2 mmol/L, 10% (v/v), 0.2 mmol/L and 3.6 g/L, respectively. At 25° C. and 1000 rpm, the mixture was shaken for 1 h. After completion of reaction, 0.6 ml of ethyl acetate was added for extraction. […] Then, the residue was dissolved in 0.5 ml isopropanol, and the solution was analyzed in accordance with the method of Example 7 for measuring the conversion of reaction and the ee value of product. […]
To 10 ml of potassium phosphate buffer (100 mmol/L, pH 9.0) was added 0.1 g of lyophilized crude enzyme powders of BoTEMO (crude enzyme powders prepared in accordance with the method of Example 5) and 0.02 g of lyophilized crude enzyme powder of glucose dehydrogenase (15 U/mg), and 1-3 g/L of omeprazole thioether/lansoprazole thioether/pantoprazole thioether/rabeprazle thioether/ilaprazole thioether, 10% (v/v) of methanol, 0.2 mmol/L of NADP^+ and 10 g/L of glucose were added. […] Then, the residue was dissolved in 0.5 ml of isopropanol, and the solution was analyzed in accordance with the method of Example 7 for measuring the conversion of reaction and the ee value of product. […]

Lysinibacillus = settings: substrate loading 0.1 g/L, after 48 fermentation cultivation; cited from earlier work
[1] = tested on: Bradyrhizobium oligotrophicum ECU1212 resting cells; test: Asymmetric oxidation of thioethers by whole resting cells; assay type: cell-based; settings: 37 g/L substrate, 1 g lyophilized cells in 100 ml, 28° C., 24 h
Protocol: Optionally, resting cells harvested from the culture of Bradyrhizobium oligotrophicum ECU1212 are used to asymmetrically catalyze the oxidation of lansoprazole thioether to prepared (R)-lansoprazole under the conditions that the thioether substrate concentration is 0.1 g/L, the catalyst loading is 10 g/L, and the reaction is carried out at 30° C. under stirring at 180 rpm. The conversion rate of lansoprazole thioether can be up to 80%, and the optical purity can be up to 99% ee(R). it can be seen that the Bradyrhizobium oligotrophicum ECU1212 comprises functional enzyme(s) which serve to asymmetrically catalyze the oxidation and have a high catalytic conversion rate. Thus, it can solve the problem that the conventional bio-catalysts have low conversion rate in the asymmetric catalytic oxidation process. […]
To 100 ml Tris-HCl buffer (100 mmol/L, pH 9.0) was added 1 g of Bradyrhizobium oligotrophicum ECU1212 lyophilized cells (lyophilized cells prepared in accordance with Example 2), and thioanisole and methanol were added to a final concentration of 37 g/L, 10% (v/v). […] Then, the residue was dissolved in 0.5 ml isopropanol, and the solution was analyzed in accordance with the method of Example 7 for the conversion of reaction and the ee value of product. […]

[2] = Activity of recombinant BoTEMO by change of absorbance at 340 nm (NADPH); assay type: biochemical
Protocol: The activity of BoTEMO and glucose dehydrogenase was determined by measuring the change of absorbance at 340 nm with a spectrophotometer.
(§2) The activity of BoTEMO was determined as follows. To 1 ml of the reaction system (100 mmol/L Tris-HCl buffer, pH 9.0) was added 1 mmol/L thioanisole and 0.2 mmol/L NADPH. The mixture was kept at 30° C. for 2 min, and then an appropriate amount of crude enzyme solution prepared in accordance with Example 5 was added. The mixture was rapidly mixed to uniform, and measured for the change of absorbance at 340 nm. The specific activity of the crude enzyme solution was determined as 101 mU/ml.
(§3) The enzyme activity was calculated in accordance with the equation of: Enzyme Activity (U)=EW×V×10^3/(6220×1).
(§4) In the equation, EW represents the change of absorbance at 340 nm in 1 min; V represents the volume of the reaction mixture (in ml); 6220 represents the molar extinction coefficient of NADPH (in L/(mol·cm)); and 1 represents the optical path distance (in cm). Each unit of BoTEMO is defined as the enzyme amount required to catalyze the oxidation of 1 μmol NADPH per minute under the foregoing conditions. Each unit of glucose dehydrogenase is defined as the enzyme amount required to catalyze the reduction of 1 μmol NADP^+ per minute under the foregoing conditions.

[3] = Enzyme activity of BoTEMO-M1 and BoTEMO-M2 powders (method of Example 6); assay type: biochemical; settings: lyophilized crude enzyme powders; for enzyme activity relative to BoTEMO: times that of BoTEMO
Protocol: as §2, §3, §4
Recombinant transformants were prepared from the foregoing two mutant genes of BoTEMO-M1 and BoTEMO-M2 in accordance with the method of Example 4. Resting cells and lyophilized crude enzyme powders were prepared in accordance with the method of Example 5. And further, the enzyme activities of BoTEMO-M1 and BoTEMO-M2 powders were measured in accordance with the method of measuring the enzyme activity of Example 6. The enzyme activities of BoTEMO-M1 and BoTEMO-M2 are 7.6 times that of BoTEMO (BoTEMO-M1) and 1.6 times (BoTEMO-M2), respectively. The activity against the lansoprazole thioether reaches 20 U/g (BoTEMO-M1) and 4.2 U/g (BoTEMO-M2).

CSc1ccccc1 [compound 1]
Specific Activity (purified BoTEMO enzyme): +++ (“+++”: >100 U/g)

COc1ccc2[nH]c(SCc3ncc(C)c(OC)c3C)nc2c1 [compound 2]
Specific Activity (purified BoTEMO enzyme): ++ (“++”: 10 ~ 100 U/g)

COc1ccnc(CSc2nc3cc(-n4cccc4)ccc3[nH]2)c1C [compound 3]
Specific Activity (purified BoTEMO enzyme): ++ (“++”: 10 ~ 100 U/g)

CSc1ccc(C)cc1 [compound 4]
Specific Activity (purified BoTEMO enzyme): + (“+”: <10 U/g)

COc1ccc2[nH]c(SC)nc2c1 [compound 5]
Specific Activity (purified BoTEMO enzyme): + (“+”: <10 U/g)

COCCCOc1ccnc(CSc2nc3ccccc3[nH]2)c1C [compound 6]
Specific Activity (purified BoTEMO enzyme): + (“+”: <10 U/g)

COc1ccnc(CSc2nc3cc(OC(F)F)ccc3[nH]2)c1OC [compound 7]
Specific Activity (purified BoTEMO enzyme): + (“+”: <10 U/g)

Cc1c(OCC(F)(F)F)ccnc1CSc1nc2ccccc2[nH]1 [compound 8]
Specific Activity (purified BoTEMO enzyme): + (“+”: <10 U/g)

COc1ccc2[nH]c(SCc3ncc(C)c(OC)c3C)nc2c1 [omeprazole thioether]
conversion of reaction (Recombinant BoTEMO; 1 g crude enzyme powders in 100 ml, 1 g/L substrate, 3 h): above 99% | conversion of reaction (Recombinant BoTEMO; crude enzyme solution, 0.2 mmol/L substrate, 1 h): above 99% | conversion (Lysinibacillus): 77%

CSc1ccccc1 [thioanisole]
conversion of reaction [1]: above 99% | conversion of reaction (Recombinant BoTEMO; crude enzyme solution, 2 mmol/L substrate, 1 h): above 99%

B1: BoTEMO: Bradyrhizobium oligotrophicum ECU1212 Thioether Monooxygenase, amino acid sequence SEQ ID No. 2 (protein)
chain: MSTEHVDVLIVGAGLSGIAAAYHLQHKCPGKRFALLEGRGALGGTWDLFRYPGIRSDSDMYTLGYSFKPWTDPKAIADGPQILKYVQDTATENGIDRHIRFNHRVRRASWSSADARWTVEAERQTAQGTTETVSMTCGFLFMCSGYYRYEKGYLPDFKGMADFKGRIVHPQAWPADLDYAGKRVVVIGSGATAVTLVPAMAKTAAHVTMLQRSPTYVVSRPAQDALANKLREHLPAGLAYHLIRWRNVLFGMYFFQLSRRKPQRVKQLILGGVRAALGPDYDVATHFTPRYNPWDQRLCLVPDGDLFRTIREQRASVVTAGIDTFTERGLRLSDGRELEAEIVVTATGLVLQVLGGSEVVVDGRTVDFAKTLNYKGMMYSDVPNMAATLGYTNFSWTLKCDLTCEYVCRLLNYMDRHGYRQCVPHNDDTTVTPLPSLSFSSGYVQRSIADLPKQGSKRPWRLYQNYALDIVSLRFGKVDDGVMRYS
modifications: Bradyrhizobium oligotrophicum ECU1212
specific activity of the crude enzyme solution ([2]; 1 mmol/L thioanisole, 0.2 mmol/L NADPH, pH 9.0, 30° C.): 101 mU/ml | activity of lyophilized crude enzyme solution powders on thioanisole ([2]; lyophilized crude enzyme powders): 0.2 U/mg

B2: BoTEMO-M2: BoTEMO mutant, Ser357Ile, Phe394Ala, SEQ ID No. 6 (protein)
chain: B1 chain with S357I, F394A
modifications: VARIANT
activity against the lansoprazole thioether [3]: 4.2 U/g | enzyme activity relative to BoTEMO [3]: 1.6 times

B3: BoTEMO-M1: BoTEMO mutant, Asp295Cys, Ser395Leu, Trp396Ala, SEQ ID No. 4 (protein)
chain: B1 chain with D295C, S395L, W396A
modifications: VARIANT
activity against the lansoprazole thioether [3]: 20 U/g | enzyme activity relative to BoTEMO [3]: 7.6 times
